# Assay results as given in patent US20160356723A1, “Light-Up Probes Based On Fluorogens With Aggregation Induced Emission Characteristics For Cellular Imaging And Drug Screening” (NATIONAL UNIVERSITY OF SINGAPORE, priority 2014, published 2016).
# Experiments:
# [1] = In vitro cytotoxicity studies; format: cell-based
# [2] = test system: U87-MG cells; experiment: Confocal imaging of intracellular thiols, U87-MG; format: cell-based, human; details: BSO increased from 25 to 100 μM
# Protocol: To explore the capability of using TPE-SS-D5-cRGD as a specific bioprobe for monitoring intracellular thiol levels in cancer cells, the probe is incubated with U87-MG human glioblastoma and MCF-7 breast cancer cell lines. U87-MG cells with overexpressed integrin αvβ3 on cellular membrane was chosen as integrin-positive cancer cell, while breast cancer cell MCF-7 with a low level of integrin αvβ3 expression was used as the negative control. […] It should be noted that the probe could also be used for live cell imaging. To provide further evidence for thiol-induced disulfide bond cleavage as the trigger of fluorescence turn-on, the U87-MG cells were also pretreated with buthionine sulfoximine (BSO) before incubation with TPE-SS-D5-cRGD. BSO is an inhibitor of g-glutamylcysteine synthetase which can inhibit the cells from synthesizing GSH. The fluorescence of TPE-SS-D5-cRGD treated U87-MG cells decreases as the concentration of BSO increases from 25 to 100 μM.
# [3] = Solubility in water; format: physicochemical; details: DMSO/PIPEs v/v=1/199
# [4] = biological target: T1, recombinant human caspase-3 (Homo sapiens, UniProt P42574); experiment: Enzymatic assay: fluorescence light-up on DEVD cleavage by caspase-3; format: biochemical
# T1 construct: purchased R&D Systems
# T1 sequence (P42574 29-175 limits assumed): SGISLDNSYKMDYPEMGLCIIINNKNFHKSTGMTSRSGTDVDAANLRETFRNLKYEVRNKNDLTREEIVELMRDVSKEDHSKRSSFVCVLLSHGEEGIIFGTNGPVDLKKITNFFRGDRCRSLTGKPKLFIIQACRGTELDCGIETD
# T1 sequence (P42574 176-277 limits assumed): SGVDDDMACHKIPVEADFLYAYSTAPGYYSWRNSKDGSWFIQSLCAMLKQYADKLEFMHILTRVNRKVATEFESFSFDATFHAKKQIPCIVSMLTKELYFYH
# Protocol: DMSO stock solutions of TPS-DEVD-Pt-cRGD were diluted with a mixture of DMSO and PIPES (v/v=1/199) to 10 μM. Next, each probe was incubated with ascorbic acid or caspase-3 at room temperature and the change of fluorescence intensity was measured. The PL spectra were collected from 420 to 650 nm under an excitation wavelength at 365 nm.
# To study the enzymatic response of TPS-DEVD-COOH, we performed in vitro enzymatic assays with recombinant human caspase-3. Mixtures of the ascorbic acid pretreated prodrug (10 μM) and caspases-3 (200 pM) were prepared and incubated in PIPES buffer. After 1 h incubation, the PL spectra were measured in the range from 425 to 650 nm.
# The fluorescence change of the TPS-DEVD-Pt-cRGD solution (10 μM) upon addition of ascorbic acid and caspase-3 enzyme was also monitored over time in a mixture of DMSO/PIPEs (v/v=1/199) buffer. […] We further studied the effect of caspase-3 concentration on the solution emission.
# [5] = test system: MCF-7 cells; experiment: Confocal imaging of drug-induced apoptosis, MCF-7; format: cell-based; details: 5 μM probe, 6 h incubation, low integrin expression
# Protocol: (§1) U87-MG, MCF-7 and 293T cells were cultured in the chambers (LAB-TEK, Chambered Coverglass System) at 37° C. After 80% confluence, the culture medium was removed and washed twice with PBS buffer. The probe in DMSO stock solution was then added to the chamber to reach a final concentration of 5 μM. In some experiments, the cells were pre-incubated with media containing cRGD (50 μM) or inhibitor (5 μM) prior to prodrug incubation. After incubation the prodrug at 37° C. for 2 h, the medium was replaced with fresh medium, after that the cells were washed twice with ice-cold PBS and the cell nucleus was living stained with DRAQ5 (Biostatus) following the standard protocol of the manufacturer. […] The images were analyzed by Image J 1.43 x program (developed by NIH, http://rsbweb.nih.gov/ij/).
# (§2) To explore the capability of using TPS-DEVD-Pt-cRGD as a targeted drug delivery system and a drug induced apoptosis imaging probe in cancer cells. […] After 2 h of incubation, the cells were treated with cisplatin or staurosporine which both can activate the cell apoptosis and monitored with confocal microscopy. […] As the incubation time elapses, the fluorescence of U87-MG increases gradually with the cellular apoptotic progress, which reaches a maximum at 6 h. […]
# [6] = Effect of ionic strength (NaCl) on emission; format: physicochemical; details: NaCl 0 to 960 mM
# Description: We next studied the optical properties of our prodrug. The UV-vis absorption spectra of TPS-CH2N3 in THF and TPS-DEVD-Pt-cRGD in DMSO/PIPES (v/v=1/199) buffer were obtained. Both have similar absorption profiles with an obvious absorbance in the 320-440 nm range with a little blue shift after the modification of the AIE fluorogen. It is known that AIE fluorogen is non-fluorescent in good solvents but emits intensely in solid or as aggregates in poor solvents. […] As biosensing is often conducted in buffers, it is important to study the effect of ionic strength on the emission behavior of the prodrug. The experiments were performed with addition of sodium chloride into an aqueous solution of TPS-DEVD-Pt-cRGD (10 μM). […] TPS-DEVD-Pt-cRGD and its reduction product maintain an “off” state in the complex environment and thus have great potential to serve as a specific light-up apoptosis sensor for drug effect study with minimum background interference.
# The photoluminescence (PL) spectra of TPE-CH2NH2 and TPE-SS-D5-cRGD in DMSO and phosphate buffered saline (PBS, pH=7.4) mixtures (v/v=1/199) are shown in FIG. 13A. […] [12] The TPE-SS-D5-cRGD probe is almost non-fluorescent in the same medium (Φ=0.001), due to the easy intramolecular rotations of the TPE phenyl rings in aqueous media. […]
# [7] = test system: apoptotic U87-MG cell lysate; experiment: Fluorescence in apoptotic cell lysate (STS pretreated); format: biochemical, human; details: 5 μM probe, lysate of cells pretreated with STS 2 μM
# Protocol: (§3) To study the selectivity of the prodrug, we incubated ascorbic acid pretreated TPS-DEVD-Pt-cRGD (10 μM) with several proteins, including lysozyme, pepsin, bovine serum albumin (BSA) and trypsin under identical conditions. […] As there are many different kinds of proteins or enzymes inside the cells, we further obtained the cellular lysate of normal and apoptotic U87-MG cells, which were pretreated with commonly used cell apoptosis inducer staurosporine (STS, 2 μM) to activate the caspase-3 enzyme in the cells. The cell lysates were directly incubated with TPS-DEVD-Pt-cRGD (5 μM) and the fluorescence intensity at 485 nm was monitored over time.
# [8] = test system: 293T cells; experiment: Confocal imaging of drug-induced apoptosis, 293T; format: cell-based; details: 5 μM probe, 6 h incubation, low integrin expression
# Protocol: as §1, §2
# [9] = test system: U87-MG cells; experiment: Confocal imaging of drug-induced apoptosis, U87-MG; format: cell-based, human
# Protocol: as §1, §2
# [10] = test system: normal U87-MG cell lysate; experiment: Fluorescence in normal cell lysate; format: biochemical, human; details: 5 μM probe, lysate of normal cells
# Protocol: as §3
# [11] = test system: lysozyme, pepsin, bovine serum albumin (BSA) and trypsin; experiment: Selectivity of fluorescence response against other proteins; format: biochemical; details: 10 μM ascorbic acid pretreated probe, identical conditions as caspase-3
# Protocol: as §3
smiles,measurement,setting,value
N=C(N)NCCC[C@@H]1NC(=O)[C@H](CCCCNC(=O)[C@H](CC(=O)O)NC(=O)[C@H](CC(=O)O)NC(=O)[C@H](CC(=O)O)NC(=O)[C@H](CC(=O)O)NC(=O)[C@H](CC(=O)O)NC(=O)CCSSCCC(=O)NCc2ccc(C(=C(c3ccccc3)c3ccccc3)c3ccccc3)cc2)NC(=O)[C@@H](Cc2ccccc2)NC(=O)[C@H](CC(=O)O)NC(=O)CNC1=O [TPE-SS-D5-cRGD],in vitro cytotoxicity,[1],biocompatible
"CCCCS(=N)(=O)CCC(N)C(=O)O (centres unmarked) [BSO, buthionine sulfoximine]",fluorescence of TPE-SS-D5-cRGD treated cells after BSO pretreatment,[2],decreases
CC(C)[C@H](NC(=O)[C@H](CCC(=O)O)NC(=O)[C@H](CC(=O)O)NC(=O)CCC(=O)[O][Pt-2]([NH3+])([NH3+])([Cl])([Cl])[O]C(=O)CCC(=O)NCCCC[C@@H]1NC(=O)[C@@H](Cc2ccccc2)NC(=O)[C@H](CC(=O)O)NC(=O)CNC(=O)[C@H](CCCNC(=N)N)NC1=O)C(=O)N[C@@H](CC(=O)O)C(=O)N[C@@H](Cc1cn(Cc2ccc(C3=C(c4ccccc4)C(c4ccccc4)=C(c4ccccc4)[Si]3(C)C)cc2)nn1)C(N)=O [TPS-DEVD-Pt-cRGD],solubility in water,[3],good solubility in water
same,fluorescence increase over intrinsic emission with caspase-3,"[4]; 10 μM probe pretreated with ascorbic acid, DMSO/PIPES v/v=1/199, PL at 485 nm, 60 min",28 fold
same,time to fluorescence plateau after caspase-3 addition,"[4]; 10 μM probe, ascorbic acid and caspase-3, DMSO/PIPES v/v=1/199",60 min
same,detection limit for caspase-3,"[4]; three times sigma method, 10 μM probe, 1 h",1 pM
same,cell fluorescence,[5],weak fluorescence signal
same,change of fluorescence with NaCl,[6],Almost no change
same,fluorescence intensity at 485 nm over time,[7],increases quickly
same,cell fluorescence,[8],weak fluorescence signal
same,incubation time at which cell fluorescence reaches maximum,"[9]; 5 μM probe, real-time imaging",6 h
same,cell fluorescence after pretreatment with free cRGD or/and caspase-3 inhibitor,[9]; cRGD 50 μM or inhibitor 5 μM before probe,weak fluorescence
same,fluorescence intensity at 485 nm (stability to cellular proteins),[10],minimum change
same,fluorescence intensity with other proteins,[11],remain low
